These are literature values, as cited in patent US12629339B2, “Lithium salt extended-release formulations; methods of making; and methods of use thereof” (Almatica Pharma LLC, priority 2023, dated 2026).

The conditions of the data set: serum lithium level.

Regarding `[Li]` [lithium], the “Toxic concentration of lithium” value is reported as at least 1.5 mEq/L.
